From article PMC11785687, “An efficient methodological approach for synthesis of selenopyridines: generation, reactions, anticancer activity, EGFR inhibitory activity and molecular docking studies” (Molecular Diversity, 2024) come the findings set out here.

In series [1] the test system is prostate cancer (PC-3) cell line. Description: SRB cytotoxicity assay, PC-3 cells. The note with it: for inhibition of cell proliferation / cytotoxic effect (in words), PC-3: tested until 100 µM. It is filed as cell-based, human. The method, then: (§1) Fig. 3 The effect of synthesized compounds against the highly metastatic cancer cell lines PC-3 and MG-63 cell lines after 72 h incubation and viability was assessed by the SRB assay. Values represent the mean ± SD of three independent experiments
(§2) The SRB assay was used to evaluate the effect of the synthesized selenium containing heterocyclic compounds on cancer cells according to the previous literatures (see Supporting Information).
(§3) The human prostate cancer cells (PC3) and human osteosarcoma cells (MG-63) were obtained from Nawah Scientific Inc. (Mokatam, Cairo, Egypt) and cultured in DMEM (Dulbecco’s modified eagle’s medium), Gibco, USA, supplemented with fetal bovine serum (FBS) at a concentration of 10% and 100 U/mL of penicillin and streptomycin (PS). The Cells were incubated at 37 °C in a humidified environment that contained 5% CO2.
(§4) Cells were seeded in 96-well plates as aliquots of 100 μL cell suspension and incubated in a complete media for 24 h. Afterward, cells were treated with synthesized compounds at diverse concentrations ranging from 0.01 μM to 100 μM for 72 h. Then, cells were fixed at 4 °C for one hour with 150 μL of 10% trichloroacetic acid (TCA). After washing the cells five times with distilled water, 70 μL of sulforhodamine (SRB) solution (0.4% w/v) was added and incubated for 10 min at room temperature in a dark place. Cells were washed with 1% acetic acid three times and allowed to air-dry. Then, 150 μL of Tris pH 10.5 (10 mM) was added, and the absorbance was measured at 540 nm using a BMG LABTECH®- FLUOstar Omega microplate reader (Ortenberg, Germany). Half maximal inhibitory concentrations (IC50) values were calculated for each experiment using GraphPad Prism 6 software. IC50 values were reported as mean ± SD [53].
For orientation: In SRB staining, fixed cells bind dye roughly in proportion to their protein.

The subject of series [2] is osteosarcoma (MG-63) cell line. As to the kind of experiment: SRB cytotoxicity assay, MG-63 cells. It counts as cell-based, human. The note with it: for inhibition of cell proliferation / cytotoxic effect (in words), MG-63: tested until 100 µM. The method, then: as §1, §2, §3, §4
Series [3] deals with T1, EGFR kinase (Homo sapiens, UniProt P00533).
T1 construct: purchased cloud clone SEA757Hu
Description: EGFR-TK cell-free inhibitory assay. It counts as biochemical. As for the experimental part: A cell-free assay was used to investigate the mechanism of inhibition of EGFR kinase according to the reported method (see Supporting Information).
A cell-free assay was used to investigate the mechanism of inhibition of EGFR kinase according to the reported method. […] 200 µM (EGFR) was used. […] Mean values of two independent replicates for each experiment were used for the interpolation.

Where [4] appears, read: Homo sapiens, PC-3, 72 h, read-out: IC50 values (µM) PC-3, SRB assay, 72 h incubation, mean ± SD.
[5] abbreviates: Homo sapiens, MG-63, 72 h, read-out: IC50 values (µM) MG-63, SRB assay, 72 h incubation, mean ± SD.
[6] abbreviates: read-out: IC50 values (µM) PC-3, SRB assay, 72 h incubation, mean ± SD.
The mark [7] stands for this setting: read-out: IC50 values (µM) MG-63, SRB assay, 72 h incubation, mean ± SD.
The mark [8] stands for this setting: Homo sapiens, PC-3, 72 h, SRB assay, 72 h incubation, mean ± SD, read-out: IC50 values (µM) PC-3.
Setting [9] is: Homo sapiens, MG-63, 72 h, SRB assay, 72 h incubation, mean ± SD, read-out: IC50 values (µM) MG-63.

Where two headings read alike, the source gives them in different places.

T1 sequence (P00533 25-1210): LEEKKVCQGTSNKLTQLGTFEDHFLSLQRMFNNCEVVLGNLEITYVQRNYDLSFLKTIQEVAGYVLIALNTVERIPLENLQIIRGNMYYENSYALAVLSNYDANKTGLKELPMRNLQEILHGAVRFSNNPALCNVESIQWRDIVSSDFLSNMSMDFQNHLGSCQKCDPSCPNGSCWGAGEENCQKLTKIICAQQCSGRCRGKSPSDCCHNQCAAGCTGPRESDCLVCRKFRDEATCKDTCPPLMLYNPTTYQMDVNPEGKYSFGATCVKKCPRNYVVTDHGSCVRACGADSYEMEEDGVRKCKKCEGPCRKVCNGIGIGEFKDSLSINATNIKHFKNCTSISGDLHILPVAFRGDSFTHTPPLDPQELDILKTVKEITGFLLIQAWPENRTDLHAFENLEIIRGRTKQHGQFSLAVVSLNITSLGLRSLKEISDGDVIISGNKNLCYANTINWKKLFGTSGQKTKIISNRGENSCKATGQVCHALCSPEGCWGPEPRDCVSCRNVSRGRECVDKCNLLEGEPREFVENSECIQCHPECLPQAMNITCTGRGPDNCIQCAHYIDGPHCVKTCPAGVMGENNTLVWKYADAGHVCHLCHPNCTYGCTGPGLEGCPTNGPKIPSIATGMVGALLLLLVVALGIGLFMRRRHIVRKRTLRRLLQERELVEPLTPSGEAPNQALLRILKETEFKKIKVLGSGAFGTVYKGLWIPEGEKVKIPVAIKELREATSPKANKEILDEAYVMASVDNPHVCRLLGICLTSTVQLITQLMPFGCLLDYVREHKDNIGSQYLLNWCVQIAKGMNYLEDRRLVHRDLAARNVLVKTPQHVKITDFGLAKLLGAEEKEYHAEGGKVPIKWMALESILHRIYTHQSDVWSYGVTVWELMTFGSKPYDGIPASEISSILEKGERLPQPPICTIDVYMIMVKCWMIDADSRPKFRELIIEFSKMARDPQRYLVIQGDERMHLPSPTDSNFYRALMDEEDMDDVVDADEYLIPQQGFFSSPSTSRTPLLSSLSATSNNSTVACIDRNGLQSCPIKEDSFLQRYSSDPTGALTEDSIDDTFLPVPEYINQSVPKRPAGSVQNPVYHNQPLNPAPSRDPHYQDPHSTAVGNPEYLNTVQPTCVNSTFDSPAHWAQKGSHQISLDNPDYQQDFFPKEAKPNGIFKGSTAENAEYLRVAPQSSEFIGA

Usually IC50 stands for the concentration at which inhibition is half-maximal. The term melting point denotes the temperature, or range, at which the solid turns liquid. Regarding `N#Cc1[se]c2nc(N)cc(N)c2c1N` [Compound 2, 3,4,6-triamino-2-cyanoselenopheno[2,3-b]pyridine], the melting point was in the range of 258 to 260 °C. Further, in series [1] (setting [4]), the IC50 was > 100 µM. Further, in series [1] (SRB assay), the “inhibition of cell proliferation / cytotoxic effect (in words), PC-3” value is recorded as “without significant inhibition of cell proliferation”. In series [2] (setting [5]), the IC50 was > 100 µM. For the same molecule, in series [2] (SRB assay), the “inhibition of cell proliferation / cytotoxic effect (in words), MG-63” value is “without significant inhibition of cell proliferation”.
For `N#Cc1[se]c2nc(N)c(N=Nc3ccc(Cl)cc3)c(N)c2c1N` [Compound 12d, 3,4,6-Triamino-5-[(4-chlorophenyl)diazenyl]selenopheno[2,3-b]pyridine-2-carbonitrile], the IC50 in series [1] (setting [4]) is < 4 µM; in series [1] (setting [6]) it was 3.08 ± 0.01 µM; in series [2] (setting [5]) it was < 4 µM; in series [2] (setting [7]) it was 3.93 ± 0.23 µM.
Turning to `CS(=O)(=O)CCNCc1ccc(-c2ccc3ncnc(Nc4ccc(OCc5cccc(F)c5)c(Cl)c4)c3c2)o1` [Lapatinib, lapatinib, reference compound], the values for the IC50 in series [1] (setting [8]) and in series [2] (setting [9]) were 0.13 ± 0.04 µM and 0.47 ± 0.03 µM, respectively.
On to `COc1ccc(N=Nc2c(N)nc3[se]c(C#N)c(N)c3c2N)cc1` [Compound 12c, 3,4,6-Triamino-5-[(4-methoxyphenyl)diazenyl]selenopheno[2,3-b]pyridine-2-carbonitrile], for which the IC50 in series [1] (setting [4]) is < 4 µM; in series [1] (setting [6]), 2.75 ± 0.09 µM; in series [2] (setting [5]), < 4 µM; in series [2] (setting [7]) it was 3.37 ± 0.12 µM.
For the molecule `CC(=O)Nc1cc2c3c(c(C#N)[se]c3n1)N=C(C)N2` [Compound 11, N-(2-cyano-4-methyl-5H-1-seleno-3,5,8-triazaacenaphthylen-7-yl)acetamide], the results for the IC50 in series [1] (setting [4]) and in series [2] (setting [5]) were 34.7 ± 0.77 µM and 62.2 ± 1.51 µM, respectively. The “inhibition of cell proliferation / cytotoxic effect (in words), PC-3” value in series [1] (SRB assay) is given as “low cytotoxic effects”. The “inhibition of cell proliferation / cytotoxic effect (in words), MG-63” value in series [2] (SRB assay) is listed as “low cytotoxic effects”.
For `Nc1nc2[se]c(-c3nc4ccccc4s3)c(N)c2c(N)c1Br` [Compound 9, 2-(benzo[d]thiazol-2-yl)-5-bromo-selenopheno[2,3-b]-pyridine-3,4,6-triamine], the IC50 in series [1] (setting [4]) worked out at 51.1 ± 3 µM; in series [2] (setting [5]) it was 62.8 ± 3.45 µM. For the same molecule, the “inhibition of cell proliferation / cytotoxic effect (in words), PC-3” value in series [1] (SRB assay) is given as “low cytotoxic effects”. Moreover, the “inhibition of cell proliferation / cytotoxic effect (in words), MG-63” value in series [2] (SRB assay) is listed as “low cytotoxic effects”.
On to `N#Cc1[se]c2nc(N)c(N=Nc3ccccc3)c(N)c2c1N` [Compound 12a, 3,4,6-Triamino-5-[phenyldiazenyl]selenopheno[2,3-b]pyridine-2-carbonitrile], for which the IC50 is < 4 µM in series [1] (setting [4]); 2.69 ± 0.03 µM in series [1] (setting [6]); < 4 µM in series [2] (setting [5]); 3.45 ± 0.2 µM in series [2] (setting [7]); 0.301 ± 0.012 µM in series [3].
With `CN(C)c1cc(N)c(C#N)c([Se][Se]c2nc(N(C)C)cc(N)c2C#N)n1` [Compound 4], the melting point lay in the range of 172 to 174 °C. In series [1] (setting [4]), the IC50 was determined as 233 ± 2.6 µM. In series [1] (SRB assay), the “inhibition of cell proliferation / cytotoxic effect (in words), PC-3” value is “without significant inhibition of cell proliferation”. Also, the IC50 in series [2] (setting [5]) turned out to be 240 ± 3.2 µM. Also, the “inhibition of cell proliferation / cytotoxic effect (in words), MG-63” value in series [2] (SRB assay) was “without significant inhibition of cell proliferation”.
On to `Cc1ccc(N=Nc2c(N)nc3[se]c(C#N)c(N)c3c2N)cc1` [Compound 12b, 3,4,6-Triamino-5-(4-methylphenyl)diazenylselenopheno[2,3-b]pyridine-2-carbonitrile], for which the IC50 in series [1] (setting [4]) was < 4 µM; in series [1] (setting [6]) it was 2.59 ± 0.02 µM; in series [2] (setting [5]), < 4 µM; in series [2] (setting [7]), 3.37 ± 0.22 µM; in series [3] it was 0.123 ± 0.004 µM.
Consider `COc1cccc2c1C(=O)c1c(O)c3c(c(O)c1C2=O)C[C@@](O)(C(=O)CO)C[C@@H]3O[C@H]1C[C@H](N)[C@H](O)[C@H](C)O1` [DOX, doxorubicin, reference compound], for which the IC50 in series [1] (setting [8]) was determined as 7.6 ± 0.45 µM; in series [2] (setting [9]), 9.4 ± 1.1 µM.
Take `N#Cc1c([Se][Se]c2nc(N)c(Sc3ccc(Cl)cc3)c(N)c2C#N)nc(N)c(Sc2ccc(Cl)cc2)c1N`: the melting point was 236 to 238 °C.
Same read-out and setting: then `N#Cc1c([Se][Se]c2nc(N)c(Sc3ccccc3)c(N)c2C#N)nc(N)c(Sc2ccccc2)c1N`, with 198 to 200 °C.
As to `N#Cc1[se]c2nc(N)c(Br)c(N)c2c1N` [Compound 7, 3,4,6-triamino-5-bromoselenopheno[2,3-b]pyridine-2-carbonitrile], the melting point lay in the range of 268 to 270 °C. In addition, the IC50 in series [1] (setting [4]) is > 100 µM. Moreover, the “inhibition of cell proliferation / cytotoxic effect (in words), PC-3” value in series [1] (SRB assay) is listed as “without significant inhibition of cell proliferation”. Moreover, in series [2] (setting [5]), the IC50 is > 100 µM. The “inhibition of cell proliferation / cytotoxic effect (in words), MG-63” value in series [2] (SRB assay) is “without significant inhibition of cell proliferation”.
In turn, `C[Se]c1nc(N)cc(N)c1C#N` displayed a melting point of 148 to 150 °C.
`N#CC[Se]c1nc(N)c(Br)c(N)c1C#N` had a melting point of 176 to 178 °C.
